{
  "source": "patent US20100105626A1",
  "about": "“Novel Analogues of Antimicrobial and Anticancer Peptide Synthesized and Produced from Gaegurin 5” (PROMEDITECH, INC, priority 2006, published 2010)",
  "type_in_all_cases": "cell-based",
  "key": {"Bacillus subtilis": {"test_system": "Bacillus subtilis", "test": "Antimicrobial activity, MIC by standard broth microdilution", "settings": "Gram-positive", "procedure": "(§1) Antimicrobial activity was determined by the standard broth microdilution method by measuring the MIC values against diverse microorganisms. In brief, Luria-Bertani medium was used as a broth medium. 30 μl of sample (2 mg/ml) prepared from Example 1 and 270 μl of fluid medium were added to lane 1 well of 96-well microtiter plates and to remaining lanes of the wells, only 150 μl of medium was added thereto. 150 μl of sample solution in lane 1 was mixed with lane 2 to prepare diluted solution (×2). With similar diluting method to the above described method, serial dilution was performed to prepare 150 μl of diluted drug solution (×2) to the extent that the final drug concentration reached to the range from 1.6 to 200 μg/ml in respective well. 25 μl of the cell culture being grown to 10^6-10^8 colony forming unit/ml in 3 ml of broth was added to each well and the micro-titer plate was incubated for overnight at 37° C."}, "Escherichia coli": {"test_system": "Escherichia coli", "test": "Antimicrobial activity, MIC by standard broth microdilution", "settings": "Gram negative", "procedure": "as §1"}, "Klebsiella pneumoniae": {"test_system": "Klebsiella pneumoniae", "test": "Antimicrobial activity, MIC by standard broth microdilution", "settings": "Gram negative", "procedure": "as §1"}, "Micrococcus luteus": {"test_system": "Micrococcus luteus", "test": "Antimicrobial activity, MIC by standard broth microdilution", "settings": "Gram-positive", "procedure": "as §1"}, "Proteus mirabilis": {"test_system": "Proteus mirabilis", "test": "Antimicrobial activity, MIC by standard broth microdilution", "settings": "Gram negative", "procedure": "as §1"}, "Pseudomonas aeruginosa": {"test_system": "Pseudomonas aeruginosa", "test": "Antimicrobial activity, MIC by standard broth microdilution", "settings": "Gram negative", "procedure": "as §1"}, "Salmonella typhimurium": {"test_system": "Salmonella typhimurium", "test": "Antimicrobial activity, MIC by standard broth microdilution", "settings": "Gram negative", "procedure": "as §1"}, "Shigella dysentariae": {"test_system": "Shigella dysentariae", "test": "Antimicrobial activity, MIC by standard broth microdilution", "settings": "Gram negative", "procedure": "as §1"}, "Staphylococcus aureus": {"test_system": "Staphylococcus aureus", "test": "Antimicrobial activity, MIC by standard broth microdilution", "settings": "Gram-positive", "procedure": "as §1"}, "Staphylococcus epidermis": {"test_system": "Staphylococcus epidermis", "test": "Antimicrobial activity, MIC by standard broth microdilution", "settings": "Gram-positive", "procedure": "as §1"}, "erythrocyte": {"test_system": "erythrocyte", "procedure": "3 ml of blood sample collected from healthy male was mixed with PBS (phosphate buffered saline, isotonic solution) with a ratio of 1:1 (v/v), centrifuged to remove buffy coat and blood plasma and washed with physiological saline solution three times to isolate pure erythrocyte. The erythrocyte was suspended in 20 ml of PBS and pre-incubated in water bath at 37° C. for 15 mins. […] of peptide solution was mixed with […] of erythrocyte solution in order to prepare various mixed solution containing various final concentrations of the peptides, i.e., 100, 50, […] and the solution was incubated in water bath at 37° C. for 15 mins. The supernatant was centrifuged with centrifuge and 100 ml of the supernatant was diluted with ImI of PBS to determine its absorbance at 550 nm. The percentage of hemolysis (%) was determined from the relative attenuation of the absorbance of sample compared with that of the suspension treated with 0.2% Triton X-100."}, "[1]": {"test_system": "SK-MEL-2 (skin cancer cell line)", "text": "(§2) In order to confirm the anticancer activity of the analogues prepared by Example 1 on A549 (lung cancer cell line, ATCC, U.S.A.), A498 (kidney cancer cell line, Korean Cell Line Bank, Korea), HCT116 (colon carcinoma cell line, Korean Cell Line Bank, Korea), MKN45 (stomach cell line, Korean Cell Line Bank, Korea), NCI-H630 (liver cancer cell line, Korean Cell Line Bank, Korea), PC-3 (prostatic carcinoma cell line, Korean Cell Line Bank, Korea), SK-MEL-2 (skin cancer cell line, Korean Cell Line Bank, Korea) and SK-OV-3 (human solid cancer cell line, Korean Cell Line Bank, Korea), the standard microculture MTT method was performed with the procedure described in the literature (Angelina Quintero et al., J Pharm Pharmaceut Sci, Vol. 2, No. 3, pp 108-112, 1999; Ashtosh K. Pathak et al., J. Am Coll Nutr., Vol. 21, No. 5, pp 416-421, 2002). Each cell line was poured into 96 well microtiter plates and cultivated at 37° C. for 24 hrs. When the cell reached to exponential growth phase, the test sample was added to each plates and each cell was inoculated into the plates added with both of dissolved and non-dissolved DMSO to culture for 3 days. 50 μl of MTT (2 mg/ml) (M5655, SIGMA, U.S.A.) was added thereto and cultured for 3 hrs. The supernatant was removed and the wells were shaken weakly to dissolve formazan crystals. 150 μl of DMSO was added thereto. The non-treated well with cell was set to blank and the wells non-treated with drug were set to standard based on the cell viability. The UV absorbance was measured by microplate reader (SAFIRE, Tecan, Austria) to calculate the cell viability at 570 nm. The inhibition rate of cell growth was calculated by following Math FIG. 1. inhibition rate of cell growth (%)={1−(absorbance of treated cells/absorbance of non-treated cells)}×100 Math Figure 1 The IC value of each cell was calculated by the amount of drug causing to 50% reduction of the absorbance comparing with that of non-treated cells."}, "[2]": {"test_system": "A549 (lung cancer cell line)", "text": "as §2"}, "[3]": {"test_system": "HCT116 (colon carcinoma cell line)", "text": "as §2"}, "[4]": {"test_system": "SK-OV-3 (human solid cancer cell line)", "text": "as §2"}, "[5]": {"test_system": "MKN45 (stomach cell line)", "text": "as §2"}},
  "note": "pIC50: −log10 of the molar value. Where no end group is shown, it is not given here.",
  "data": [
    {"substance": "FLGWLFKWASK-NH2 (C-terminus assumed) [W4,8-GGN5N11]", "values": [
      {"measurement": "Minimal inhibitory concentration", "setting": "Bacillus subtilis", "result": 3.2, "unit": "µg/mL"},
      {"measurement": "Minimal inhibitory concentration", "setting": "Escherichia coli", "result": 50, "unit": "µg/mL"},
      {"measurement": "Minimal inhibitory concentration", "setting": "Klebsiella pneumoniae", "result": 50, "unit": "µg/mL"},
      {"measurement": "Minimal inhibitory concentration", "setting": "Micrococcus luteus", "result": 3.2, "unit": "µg/mL"},
      {"measurement": "Minimal inhibitory concentration", "setting": "Proteus mirabilis", "result": ">200", "unit": "µg/mL"},
      {"measurement": "Minimal inhibitory concentration", "setting": "Pseudomonas aeruginosa", "result": ">200", "unit": "µg/mL"},
      {"measurement": "Minimal inhibitory concentration", "setting": "Salmonella typhimurium", "result": ">200", "unit": "µg/mL"},
      {"measurement": "Minimal inhibitory concentration", "setting": "Shigella dysentariae", "result": 12.5, "unit": "µg/mL"},
      {"measurement": "Minimal inhibitory concentration", "setting": "Staphylococcus aureus", "result": 1.6, "unit": "µg/mL"},
      {"measurement": "Minimal inhibitory concentration", "setting": "Staphylococcus epidermis", "result": 3.2, "unit": "µg/mL"}
    ]},
    {"substance": "FLGWLFKWASKVL-NH2 [W4,8-GGN5N13, F-L-G-W-L-F-K-W-A-S-K-V-L]", "values": [
      {"measurement": "hemolytic activity (in words)", "setting": "erythrocyte", "result": "potent hemolytic activity"}
    ]},
    {"substance": "FLGWLFKWAWK-NH2 [model 27, F-L-G-W-L-F-K-W-A-W-K]", "values": [
      {"measurement": "pIC50", "setting": "[1]", "result": 4.85}
    ]},
    {"substance": "FLKWLFKWAKK-NH2 [model 26, F-L-K-W-L-F-K-W-A-K-K]", "values": [
      {"measurement": "hemolytic activity (in words)", "setting": "erythrocyte", "result": "much less hemolysis than the others"},
      {"measurement": "pIC50", "setting": "[2]", "result": 4.84},
      {"measurement": "pIC50", "setting": "[3]", "result": 4.83},
      {"measurement": "pIC50", "setting": "[4]", "result": 4.90}
    ]},
    {"substance": "FLWWLFKWAWK-NH2 [model 28, F-L-W-W-L-F-K-W-A-W-K]", "values": [
      {"measurement": "pIC50", "setting": "[2]", "result": 4.80},
      {"measurement": "pIC50", "setting": "[3]", "result": 4.83},
      {"measurement": "pIC50", "setting": "[5]", "result": 4.86},
      {"measurement": "pIC50", "setting": "[1]", "result": 4.88},
      {"measurement": "pIC50", "setting": "[4]", "result": 4.84}
    ]}
  ]
}
